# Experimental data as given in patent publication US20230192705A1, “SHP2 INHIBITORS, COMPOSITIONS AND USES THEREOF” (Betta Pharmaceuticals Co., Ltd, priority 2020, published 2023).
# Biological target: T1, SHP2 (Homo sapiens, UniProt Q06124)
# T1 sequence (Q06124 1-593): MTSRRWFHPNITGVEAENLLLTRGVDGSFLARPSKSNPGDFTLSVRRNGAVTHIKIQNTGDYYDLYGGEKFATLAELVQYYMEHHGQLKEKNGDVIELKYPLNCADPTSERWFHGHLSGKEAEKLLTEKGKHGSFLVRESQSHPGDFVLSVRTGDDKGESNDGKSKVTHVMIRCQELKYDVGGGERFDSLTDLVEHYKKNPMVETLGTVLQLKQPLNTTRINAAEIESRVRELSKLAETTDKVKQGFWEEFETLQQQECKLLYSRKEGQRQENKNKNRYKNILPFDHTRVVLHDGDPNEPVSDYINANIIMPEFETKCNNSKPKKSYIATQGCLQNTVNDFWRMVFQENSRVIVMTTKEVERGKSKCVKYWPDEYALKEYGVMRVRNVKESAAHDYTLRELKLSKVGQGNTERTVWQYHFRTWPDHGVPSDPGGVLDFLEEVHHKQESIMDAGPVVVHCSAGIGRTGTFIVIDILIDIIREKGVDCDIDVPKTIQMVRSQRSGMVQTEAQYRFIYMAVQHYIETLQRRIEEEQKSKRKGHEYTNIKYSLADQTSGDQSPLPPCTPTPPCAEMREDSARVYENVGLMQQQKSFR
# Experiment: SHP2 allosteric inhibitor enzyme activity assay (DiFMUP fluorescence)
# Type: biochemical
# Conditions: class symbols
# Procedure, shortened: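 SHP2 activated by 0.5 μM IRS1_pY1172(dPEG8)pY1222 peptide, 0.2 ng enzyme per well, 1 h at room temperature with compound (1 μM top, 3-fold series), then DiFMUP substrate 1 h. Buffer: 60 mM HEPES, 75 mM NaCl, 75 mM KCl, 0.05% BRIJ-35, 1 mM EDTA, 5 mM DTT. Fluorescence ex 340/em 450 nm; IC50 by variable-slope fit.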
row,SMILES,IC50
1,"CN(C)c1nccc(C2(c3n[nH]c4nc(N5CCC6(CC5)Cc5ccccc5[C@H]6N)[nH]c(=O)c34)CC2)c1Cl [Example 61, (S)-6-(1-amino-1,3-dihydrospiro[indene-2,4′-piperidin]-1′-yl)-3-(1-(3-chloro-2-(dimethylamino)pyridin-4-yl)cyclopropyl)-1,5-dihydro-4H-pyrazolo[3,4-d]pyrimidin-4-one]",≤ 20 nM
2,"N[C@@H]1c2ccccc2CC12CCN(c1nc3[nH]nc(C4(c5ccccc5OC(F)(F)F)CC4)c3c(=O)[nH]1)CC2 [Example 16, (S)-6-(1-amino-1,3-dihydrospiro[indene-2,4′-piperidin]-1′-yl)-3-(1-(2-(trifluoromethoxy)phenyl)cyclo-propyl)-1,5-dihydro-4H-pyrazolo[3,4-d]pyrimidin-4-one]",≤ 20 nM
3,"N[C@@H]1c2ccccc2CC12CCN(c1nc3[nH]nc(C4(c5cnn(-c6ccccc6)c5)CC4)c3c(=O)[nH]1)CC2 [Example 56, (S)-6-(1-amino-1,3-dihydrospiro[indene-2,4′-piperidin]-1′-yl)-3-(1-(1-phenyl-1H-pyrazol-4-yl)cyclopropyl)-1,5-dihydro-4H-pyrazolo[3,4-d]pyrimidin-4-one]",20 to 60 nM
4,"Cn1ccc(-c2cc(C3(c4n[nH]c5nc(N6CCC7(CC6)Cc6ccccc6[C@H]7N)[nH]c(=O)c45)CC3)ccn2)n1 [Example 88, (S)-6-(1-amino-1,3-dihydrospiro[indene-2,4′-piperidin]-1′-yl)-3-(1-(2-(1-methyl-1H-pyrazol-3-yl)pyridin-4-yl)cyclopropyl)-1,5-dihydro-4H-pyrazolo[3,4-d]pyrimidin-4-one]",≤ 20 nM
5,"COc1cc(C2(c3n[nH]c4nc(N5CCC6(CC5)Cc5ccccc5[C@H]6N)[nH]c(=O)c34)CC2)ccn1 [Example 28, (S)-6-(1-amino-1,3-dihydrospiro[indene-2,4′-piperidin]-1′-yl)-3-(1-(2-methoxypyridin-4-yl)cyclopropyl)-1,5-dihydro-4H-pyrazolo[3,4-d]pyrimidin-4-one]",≤ 20 nM
6,"CC1(C)C=C(c2n[nH]c3nc(N4CCC5(CC4)Cc4ccccc4[C@H]5N)[nH]c(=O)c23)c2cnn(CC(F)(F)F)c2C1 [Example 151, (S)-6-(1-amino-1,3-dihydrospiro[indene-2,4′-piperidin]-1′-yl)-3-(6,6-dimethyl-l-(2,2,2-trifluoroethyl)-6,7-dihydro-1H-indazol-4-yl)-1,5-dihydro-4H-pyrazolo[3,4-d]pyrimidin-4-one]",≤ 20 nM
7,"CC1(C)C=C(c2n[nH]c3nc(N4CCC5(CC4)Cc4ccccc4[C@H]5N)[nH]c(=O)c23)c2cn(C3CC3)nc2C1 [Example 155, (S)-6-(1-amino-1,3-dihydrospiro[indene-2,4′-piperidin]-1′-y1)-3-(2-cyclopropyl-6,6-dimethyl-6,7-dihydro-2H-indazol-4-yl)-1,5-dihydro-4H-pyrazolo[3,4-d]pyrimidin-4-one]",20 to 60 nM
8,"Cn1cc2c(n1)CCC=C2c1n[nH]c2nc(N3CCC4(CC3)Cc3ccccc3[C@H]4N)[nH]c(=O)c12 [Example 121, (S)-6-(1-amino-1,3-dihydrospiro[indene-2,4′-piperidin]-1′-yl)-3-(2-methyl-6,7-dihydro-2H-indazol-4-yl)-1,5-dihydro-4H-pyrazolo[3,4-d]pyrimidin-4-one]",≤ 20 nM
9,"N[C@@H]1c2ccccc2CC12CCN(c1nc3[nH]nc(C4(c5cccc6occc56)CC4)c3c(=O)[nH]1)CC2 [Example 80, (S)-6-(1-amino-1,3-dihydrospiro[indene-2,4′-piperidin]-1′-yl)-3-(1-(benzofuran-4-yl)cyclopropyl)-1,5-dihydro-4H-pyrazolo[3,4-d]pyrimidin-4-one]",≤ 20 nM
10,"N[C@@H]1c2ccccc2CC12CCN(c1nc3[nH]nc(C4(c5ccnc(N6CCOCC6)c5)CC4)c3c(=O)[nH]1)CC2 [Example 31, (S)-6-(1-amino-1,3-dihydrospiro[indene-2,4′-piperidin]-1′-yl)-3-(1-(2-morpholinopyridin-4-yl)cyclopropyl)-1,5-dihydro-4H-pyrazolo[3,4-d]pyrimidin-4-one]",20 to 60 nM

# Continued, values first:
row,IC50,SMILES
1,20 to 60 nM,"C[C@@H]1OCC2(CCN(c3nc4[nH]nc(C5(c6nccs6)CC5)c4c(=O)[nH]3)CC2)[C@@H]1N [Example 277, 6-((3S,4S)-4-amino-3-methyl-2-oxa-8-azaspiro[4.5]decan-8-yl)-3-(1-(thiazol-2-yl)cyclopropyl)-1,5-dihydro-4H-pyrazolo[3,4-d]pyrimidin-4-one]"
2,≤ 20 nM,"Cc1snnc1C1(c2n[nH]c3nc(N4CCC5(CC4)Cc4ccccc4[C@H]5N)[nH]c(=O)c23)CC1 [Example 241, (S)-6-(1-amino-1,3-dihydrospiro[indene-2,4′-piperidin]-1′-yl)-3-(1-(5-methyl-1,2,3-thiadiazol-4-yl)cyclopropyl)-1,5-dihydro-4H-pyrazolo[3,4-d]pyrimidin-4-one]"
3,20 to 60 nM,"C[C@@H]1OCC2(CCN(c3nc4[nH]nc(C5(c6ccccc6F)CC5)c4c(=O)[nH]3)CC2)[C@@H]1N [Example 294, 6-((3S,4S)-4-amino-3-methyl-2-oxa-8-azaspiro[4.5]decan-8-yl)-3-(1-(2-fluorophenyl)cyclopropyl)-1,5-dihydro-4H-pyrazolo[3,4-d]pyrimidin-4-one]"
4,20 to 60 nM,"Cc1ccc(C2(c3n[nH]c4nc(N5CCC6(CC5)CO[C@@H](C)[C@H]6N)[nH]c(=O)c34)CC2)cc1 [Example 300, 6-((3S,4S)-4-amino-3-methyl-2-oxa-8-azaspiro[4.5]decan-8-yl)-3-(1-(p-tolyl)cyclopropyl)-1,5-dihydro-4H-pyrazolo[3,4-d]pyrimidin-4-one]"
5,≤ 20 nM,"CC1(C)C=C(c2n[nH]c3nc(N4CCC5(CC4)Cc4ccccc4[C@H]5N)[nH]c(=O)c23)c2ccc(Cl)nc2C1 [Example 161, (S)-6-(1-amino-1,3-dihydrospiro[indene-2,4′-piperidin]-1′-yl)-3-(2-chloro-7,7-dimethyl-7,8-dihydroquinolin-5-yl)-1,5-dihydro-4H-pyrazolo[3,4-d]pyrimidin-4-one]"
6,≤ 20 nM,"N[C@@H]1c2ccccc2CC12CCN(c1nc3[nH]nc(C4(c5nncs5)CC4)c3c(=O)[nH]1)CC2 [Example 239, (S)-3-(1-(1,3,4-thiadiazol-2-yl)cyclopropyl)-6-(1-amino-1,3-dihydrospiro[indene-2,4′-piperidin]-1′-yl)-1,5-dihydro-4H-pyrazolo[3,4-d]pyrimidin-4-one]"
7,≤ 20 nM,"N[C@@H]1c2ccccc2CC12CCN(c1nc3[nH]nc(C4(c5ccc(Cl)cc5Cl)CC4)c3c(=O)[nH]1)CC2 [Example 235, (S)-6-(1-amino-1,3-dihydrospiro[indene-2,4′-piperidin]-1′-yl)-3-(1-(2,4-dichlorophenyl)cyclopropyl)-1,5-dihydro-4H-pyrazolo[3,4-d]pyrimidin-4-one]"
8,≤ 20 nM,"N[C@@H]1c2ccccc2CC12CCN(c1nc3[nH]nc(C4=C(F)CCc5nc(C(F)(F)F)ccc54)c3c(=O)[nH]1)CC2 [Example 187, (S)-6-(1-amino-1,3-dihydrospiro[indene-2,4′-piperidin]-1′-yl)-3-(6-fluoro-2-(trifluoromethyl)-7,8-dihydroquinolin-5-yl)-1,5-dihydro-4H-pyrazolo[3,4-d]pyrimidin-4-one]"
9,≤ 20 nM,"N[C@@H]1c2ccccc2CC12CCN(c1nc3[nH]nc(C4(c5cccc(OC6CC6)c5)CC4)c3c(=O)[nH]1)CC2 [Example 227, (S)-6-(1-amino-1,3-dihydrospiro[indene-2,4′-piperidin]-1′-yl)-3-(1-(3-cyclopropoxyphenyl)cyclopropyl)-1,5-dihydro-4H-pyrazolo[3,4-d]pyrimidin-4-one]"
